Tested on: Hartley male guinea pigs loaded with phenylephrine
Assay: Pressure Flow Study using guinea pigs loaded with phenylephrine
Assay type: in vivo, guinea pig
Conditions: i.v., tamsulosin 0.01 mg/kg, Example 20 0.1 mg/kg, urethane-anesthetized, phenylephrine 3 μg/animal/min
Experimental: Hartley male guinea pigs (Slc) weighing 300 to 350 g was anesthetized with urethane (1.2 g/kg, i.p.), and a median was incised to expose bladder. Two polyethylene tubes were inserted into bladder, and one of them was used for injecting a physiological saline and the other was used for measuring a bladder internal pressure. A cannulae was inserted into a left femoral vein, and phenylephrine was continuously administered intravenously at 3 μg/animal/min until the completion of experiment. A physiological saline was injected into bladder at a rate of 0.3 mL/min, and injection was stopped when urination was confirmed. The urinated urine weight was measured with an electron balance (HX-400, A & D) at real time. Analogue data of bladder internal pressure and urine weight were inputted into an AD transducer (MP-100, BIOPAC Systems), and digital signals were analyzed with exclusive analyzing software (AcqKnowledge 3.5.3, BIOPAC Systems). The sampling rate of data was 10 Hz, and data of urination amount and urine flow rate were subjected to a lowcut filter at 0.5 Hz in order to remove noises. The value of urine weight was differentiated to calculate urine flow rate (Q), and maximum urine flow rate (Qmax) at urination and bladder internal pressure (Pves (Qmax)) at maximum urine flow were calculated. The urination weight 1 g was converted into 1 mL to calculate the urination amount, and divided by bladder volume to obtain voiding efficiency (Voiding Efficiency). Example compound was dissolved in DMSO, and the solution was intravenously administered at 0.5 mL/kg. 10 minutes after administration of test compound, urinary reflection was recorded again, and change in urine flow rate (ΔQmax), and change in bladder internal pressure (ΔPves(Qmax)) and voiding efficiency were assessed. The change in urine flow rate (ΔQmax) and change in bladder internal pressure (ΔPves. (Qmax)) were an amount of change (Δ value) obtained by subtracting each value before administration of test compound from each value after administration, and voiding efficiency was assessed by a relative value (% of pre-value) of after administration of test compound relative to before administration. Tamsulosin which is a known α1 receptor antagonist was measured similarly. A significance diffenence was tested by a Dunnett test by comparing with each value of a vehicle (DMSO)-administered group.

[1] = 10 minutes after administration minus before

COc1ccccc1CCNCCCCCC(=O)c1cc2c3c(c1)CCN3C(=O)CC2.Cl [Example 20, 8-(6-[[2-(2-Methoxyphenyl)ethyl]amino]hexanoyl]-1,2,5,6-tetrahydro-4H-pyrrolo[3,2,1-ij]quinolin-4-one hydrochloride]
change in bladder internal pressure (ΔPves(Qmax)) [1]: −1.73 ± 1.54 cmH2O | change in maximum urine flow rate (ΔQmax) [1]: 0.060 ± 0.016 mL/s | voiding efficiency (% of pre-value) (after administration relative to before): 150.1 ± 20.1 %

Source: US7132547B2, “Preventives/remedies for urinary disturbance” (priority 2001, dated 2006)
